Results: patent publication US20240425452A1
Several values for one entry are separate records, joined by “and”; a condition that tells them apart may be missing. Equal entries are not always repeated. Where two headings read alike, the source gives them in different places.

Assays:
[1] = Stability in biorelevant fluids (FaSSGF, FaSSIF), HPLC; settings: for Percent of isomer in FaSSGF / Percent of isomer in FaSSIF: 250 μM
Procedure: The stability of the trans and cis isomers of 3-(2-bromo-3,4-dihydroxy-phenyl)-N-(3,4,5-trihydroxy-benzyl)-thioacrylamide in biorelevant fluids was assessed, including Fasted State Simulated Intestinal Fluid (FaSSIF) and Fasted State Simulated Gastric Fluid (FaSSGF).
A solution containing the cis isomer of 3-(2-bromo-3,4-dihydroxy-phenyl)-N-(3,4,5-trihydroxy-benzyl)-thioacrylamide was prepared by exposing a 5 mL solution of the 100% trans isomer at a concentration of 1 mM to 125 lux light for 9 hours at 4° C.
FaSSIF and FaSSGF solutions were prepared according to the manufacturer's instructions.
The cis and trans isomers of 3-(2-bromo-3,4-dihydroxy-phenyl)-N-(3,4,5-trihydroxy-benzyl)-thioacrylamide were diluted in either FaSSIF or FaSSGF solutions to a final concentration of 250 μM. Samples were taken at time 0 and after 4 hours. Samples were frozen in liquid nitrogen, and stored frozen until analysis.

[2] = Octanol:water partition coefficient (Log P), HPLC
Procedure: The octanol:water partition coefficients of the trans and cis isomers of 3-(2-bromo-3,4-dihydroxy-phenyl)-N-(3,4,5-trihydroxy-benzyl)-thioacrylamide were determined.
A solution of 10 mM of the trans isomer in DMSO was prepared and diluted 10-fold in water. A solution of the cis isomer was obtained by exposing the trans isomer solution (5 mL) to 125 lux light at 4° C. for 9 hours resulting in a solution containing more than 90% of the cis isomer. Partitioning in octanol:water was performed as follows: 20 μL of each solution were added to 80 μL of water (saturated by octanol, containing 1 mM of ascorbic acid) and 100 μl of octanol (saturated by water). The obtained solutions were stirred for 1 min and left for incubation at RT for 24 hours. Then, each phase was analyzed by HPLC. The concentration (C) of each isomer was determined using a calibration curve, based on the injection volume of each phase and a response factor of 1 (previously measured).
For all said analyses a volume of 13 μL was injected to the HPLC.

[3] = Interactions with water molecules, thermogravimetric analysis (TGA); type: physicochemical; settings: TGA 30-200° C. at 10° C./min, 1 mM in water with 1% DMSO
Procedure: TGA was performed on a Perkin Elmer TGA 800 using Pyris software. A temperature scan from 30° C. to 200° C. at a rate of 10° C./min was performed. The isomers were analyzed at a concentration of 1 mM in water (containing 1% DMSO).

[4] = Exposure of trans isomer to artificial daylight, 1H NMR analysis; type: physicochemical; settings: 10% d6-DMSO in buffer pH 7.4, artificial daylight 5 hr
[5] = Exposure of trans isomer in HPCD solution to room lighting, UV analysis; type: physicochemical; settings: 0.5 mg/mL in 0.025% phosphoric acid (diluted from HPCD solution), clear glass vials, room lighting several days
[6] = type: physicochemical; settings: 1 mM, 125 lux light
Description: An additional assessment of the stability of the trans isomer upon exposure to artificial daylight was made.

[7] = simulated intestinal fluid, 0 h
[8] = simulated intestinal fluid, 0.5 h

## Oc1cc(CNC(=S)C=Cc2ccc(O)c(O)c2Br)cc(O)c1O (single isomer, unassigned; isomer 3) [cis isomer]
[1]; simulated gastric fluid, 0 to 4 h
  reduction of concentration in FaSSGF: ~16%
[1]; simulated gastric fluid, 0 h
  Percent of isomer in FaSSGF: 89.05%
[1]; simulated gastric fluid, 0.5 h
  Percent of isomer in FaSSGF: 89.07%
[1]; simulated gastric fluid, 4 h
  Percent of isomer in FaSSGF: 73.47%
[1]; [7]
  Percent of isomer in FaSSIF: 83.49%
[1]; [8]
  Percent of isomer in FaSSIF: 72.21%
[1]; simulated intestinal fluid, 4 h, listed as Cis
  Percent of isomer in FaSSIF: 54.87%
[1]; simulated intestinal fluid, 4 h, listed as cis
  Percent of isomer in FaSSIF: ~55%
[2]
  logP at 24 h: -0.18
[3]
  Maximum evaporation rate (bound water): 12%/min
  Maximum evaporation rate (free water): 37 %/min
  Temperature of mid evaporation (free water): 58 °C
[3]; listed as Cis isomer
  Maximum evaporation rate (free water): 37%/min

## Oc1cc(CNC(=S)/C=C/c2ccc(O)c(O)c2Br)cc(O)c1O [trans isomer]
physchem
  logP at 24 h: 0.86
[4]
  conversion of the trans isomer to the cis isomer (1H-NMR): significant conversion
[1]; simulated gastric fluid, 0 h
  Percent of isomer in FaSSGF: 100%
[1]; simulated gastric fluid, 0.5 h
  Percent of isomer in FaSSGF: 100%
[1]; simulated gastric fluid, 4 h
  Percent of isomer in FaSSGF: 100%
[1]; simulated gastric fluid, up to 4 h
  stability in FaSSGF: completely stable
[1]; simulated intestinal fluid, 0 to 4 h
  reduction of concentration in FaSSIF: ~7%
[1]; [7]
  Percent of isomer in FaSSIF: 98.15%
[1]; [8]
  Percent of isomer in FaSSIF: 96.25%
[1]; simulated intestinal fluid, 4 h
  Percent of isomer in FaSSIF: 90.98%
[5]
  conversion of the trans isomer to the cis isomer: conversion of the trans isomer to the cis isomer
[6]; 0 hours
  % cis: 0%
  % trans: 100%
[6]; 1 hour
  % trans: 50.5%
[6]; 2 hours
  % cis: 64% and 63.7%
  % trans: 36.3%
[6]; 4 hours
  % cis: 87.7%
  % trans: 12.3%
[6]; 5 hours
  % trans: 8.5%
[6]; 6 hours
  % cis: 92.1%
  % trans: 7.9%
[3]
  Maximum evaporation rate (bound water): 12%/min
  Maximum evaporation rate (free water): 23 %/min
  Temperature of mid evaporation (free water): 87 °C
[3]; listed as Trans isomer
  Maximum evaporation rate (free water): 23%/min
